Values of other authors as cited in PubChem BioAssay AID1259409 (Chemical Carcinogenesis Research Information System (CCRIS), 2018).

Tested on: rodent chemically induced tumor inhibition, incidence and multiplicity
Test: CCRIS tumor inhibitor studies
Details: Carcinogen: 4-(METHYLNITROSAMINO)-1-(3-PYRIDYL)-1-BUTANONE, 64091-91-4, Dose [Inhibitor]: 0, Promoter: NONE USED

## S=C=NCCCCCCc1ccccc1
1 UMOL 1/D FOR 4 D ADMINISTERED PRIOR TO CARCINOGEN TREATMENT (STUDY DURATION: 116 D), Route [Inhibitor]: GAVAGE, Species: MOUSE, Strain/Sex: STRAIN A, Target Tissue: Type of Lesion: LUNG: ADENOMA, Dose [Carcinogen]: 10 UMOL ONCE 2 HR AFTER FINAL DOSE OF INHIBITOR
  tumour outcome (control, treated, inhibition, significance): 100%, 0%, 100%, p<0.05
5 UMOL 1/D FOR 4 D ADMINISTERED PRIOR TO CARCINOGEN TREATMENT (STUDY DURATION: 116 D), Route [Inhibitor]: GAVAGE, Species: MOUSE, Strain/Sex: STRAIN A, Target Tissue: Type of Lesion: LUNG: ADENOMA, Dose [Carcinogen]: 10 UMOL ONCE 2 HR AFTER FINAL DOSE OF INHIBITOR
  tumour outcome (control, treated, inhibition, significance): 100%, 5%, 95%, p<0.05
0.04 UMOL ONCE 2 HR PRIOR TO CARCINOGEN DOSE (STUDY DURATION: 16 WK), Route [Inhibitor]: GAVAGE, Species: MOUSE, Strain/Sex: STRAIN-A/FEMALE, Target Tissue: Type of Lesion: LUNG: ADENOMA, Dose [Carcinogen]: 10 UMOL IN 0.1 ML SALINE ONCE
  tumour outcome (control, treated, inhibition, significance): 100%, 100%, 0%, not significant
0.1 UMOL ONCE 2 HR PRIOR TO CARCINOGEN DOSE (STUDY DURATION: 16 WK), Route [Inhibitor]: GAVAGE, Species: MOUSE, Strain/Sex: STRAIN-A/FEMALE, Target Tissue: Type of Lesion: LUNG: ADENOMA, Dose [Carcinogen]: 10 UMOL IN 0.1 ML SALINE ONCE
  tumour outcome (control, treated, inhibition, significance): 100%, 100%, 0%, not significant
0.2 UMOL ONCE 2 HR PRIOR TO CARCINOGEN DOSE (STUDY DURATION: 16 WK), Route [Inhibitor]: GAVAGE, Species: MOUSE, Strain/Sex: STRAIN-A/FEMALE, Target Tissue: Type of Lesion: LUNG: ADENOMA, Dose [Carcinogen]: 10 UMOL IN 0.1 ML SALINE ONCE
  tumour outcome (control, treated, inhibition, significance): 100%, 100%, 0%, not significant
1 UMOL/G DIET FOR DURATION OF STUDY BEGINNING 1 WK PRIOR TO CARCINOGEN TREATMENT (STUDY DURATION: 112 WK), Route [Inhibitor]: ORAL, Species: RAT, Strain/Sex: F344/MALE, Target Tissue: Type of Lesion: HEMATOPOIETIC SYSTEM: LEUKEMIA OR LYMPHOMA, Dose [Carcinogen]: 2 PPM IN DRINKING WATER FOR 111 WK
  tumour outcome (control, treated, inhibition, significance): 26/56 (46%), 11/57 (19%), 59%, p=0.002
1 UMOL/G DIET FOR DURATION OF STUDY BEGINNING 1 WK PRIOR TO CARCINOGEN TREATMENT (STUDY DURATION: 112 WK), Route [Inhibitor]: ORAL, Species: RAT, Strain/Sex: F344/MALE, Target Tissue: Type of Lesion: LIVER: ADENOMA, Dose [Carcinogen]: 2 PPM IN DRINKING WATER FOR 111 WK
  tumour outcome (control, treated, inhibition, significance): 2/55 (4%), 4/50 (8%), -100%, not significant
1 UMOL/G DIET FOR DURATION OF STUDY BEGINNING 1 WK PRIOR TO CARCINOGEN TREATMENT (STUDY DURATION: 112 WK), Route [Inhibitor]: ORAL, Species: RAT, Strain/Sex: F344/MALE, Target Tissue: Type of Lesion: LIVER: CARCINOMA, Dose [Carcinogen]: 2 PPM IN DRINKING WATER FOR 111 WK
  tumour outcome (control, treated, inhibition, significance): 3/55 (5%), 1/50 (2%), 60%, not significant
1 UMOL/G DIET FOR DURATION OF STUDY BEGINNING 1 WK PRIOR TO CARCINOGEN TREATMENT (STUDY DURATION: 112 WK), Route [Inhibitor]: ORAL, Species: RAT, Strain/Sex: F344/MALE, Target Tissue: Type of Lesion: LUNG: ADENOCARCINOMA, Dose [Carcinogen]: 2 PPM IN DRINKING WATER FOR 111 WK
  tumour outcome (control, treated, inhibition, significance): 23/56 (41%), 9/57 (16%), 61%, p=0.003
1 UMOL/G DIET FOR DURATION OF STUDY BEGINNING 1 WK PRIOR TO CARCINOGEN TREATMENT (STUDY DURATION: 112 WK), Route [Inhibitor]: ORAL, Species: RAT, Strain/Sex: F344/MALE, Target Tissue: Type of Lesion: LUNG: ADENOMA, Dose [Carcinogen]: 2 PPM IN DRINKING WATER FOR 111 WK
  tumour outcome (control, treated, inhibition, significance): 16/56 (29%), 6/57 (11%), 62%, p=0.015
1 UMOL/G DIET FOR DURATION OF STUDY BEGINNING 1 WK PRIOR TO CARCINOGEN TREATMENT (STUDY DURATION: 112 WK), Route [Inhibitor]: ORAL, Species: RAT, Strain/Sex: F344/MALE, Target Tissue: Type of Lesion: NASAL CAVITY: PAPILLOMA OR CARCINOMA, Dose [Carcinogen]: 2 PPM IN DRINKING WATER FOR 111 WK
  tumour outcome (control, treated, inhibition, significance): 1/48 (2%), 2/45 (4%), -100%, not significant
